# Measurements as given in patent publication US9302999B2, “Substituted triazoles as herbicides” (E. I. DU PONT DE NEMOURS AND COMPANY, priority 2012, dated 2016).
# Where two headings read alike, the source gives them in different places.
# Columns and labels:
# Format in all cases: in vivo
# [1] = test system: pigweed (Amaranthus retroflexus); test: Test A pre-/postemergence: pigweed; details: for pest or weed control at 125 g/ha / pest or weed control at 500 g/ha: Amaranthus retroflexus, 240 h
# Outline: (§1)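 Each species received preemergence soil-directed spraying and, at the same time, postemergence treatment of seedlings 2–10 cm tall. Formulation: non-phytotoxic solvent mixture including surfactant. Response assessed visually about ten days on, relative to untreated controls, 0–100 scale.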
# [2] = test system: wheat (Triticum aestivum); test: Test A pre-/postemergence: wheat; details: for plant injury at 125 g/ha / plant injury at 500 g/ha: Triticum aestivum, 240 h
# Outline: as §1
# [3] = test system: ryegrass, Italian (Italian ryegrass, Lolium multiflorum); test: Test C pre-/postemergence: ryegrass, Italian
# Outline: (§2)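 Preemergence on seeds in loam/sand, postemergence on 2–18 cm (1–4-leaf) plants in peat-based medium; compounds in non-phytotoxic solvent with surfactant. After 13–15 days in greenhouse, visual rating versus controls, 0 (no effect) to 100 (complete control).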
# [4] = test system: galium (catchweed bedstraw, Galium aparine); test: Test C pre-/postemergence: galium
# Outline: as §2
# [5] = test system: corn (Zea mays); test: Test C pre-/postemergence: corn
# Description: (§3) Seeds of plant species selected from blackgrass (Alopecurus myosuroides), bromegrass, downy (downy bromegrass, Bromus tectorum), foxtail, green (green foxtail, Setaria viridis), ryegrass, Italian (Italian ryegrass, Lolium multiflorum), winter wheat (Triticum aestivum), wild oat (Avena fatua), galium (catchweed bedstraw, Galium aparine), bermudagrass (Cynodon dactylon), surinam grass (Brachiaria decumbens), cocklebur (common cocklebur, Xanthium strumarium), corn (Zea mays), large crabgrass (Digitaria sanguinalis), woolly cupgrass (Eriochloa villosa), foxtail, giant (giant foxtail, Setaria faberii), goosegrass (Eleusine indica), johnsongrass (Sorghum halepense), kochia (Kochia scoparia), lambsquarters (Chenopodium album), morningglory (Ipomoea coccinea), nightshade (eastern black nightshade, Solanum ptycanthum), nutsedge, yellow (yellow nutsedge, Cyperus esculentus), pigweed (Amaranthus retroflexus), ragweed (common ragweed, Ambrosia elation), soybean (Glycine max), common (oilseed) sunflower (Helianthus annuus), Russian thistle (Salsola kali) and velvetleaf (Abutilon theophrasti) were planted into a blend of loam soil and sand and treated preemergence with test chemicals formulated in a non-phytotoxic solvent mixture which included a surfactant.
# (§4) At the same time, plants selected from these crop and weed species and also barley (winter barley, Hordeum vulgare), canarygrass (Phalaris minor), chickweed (common chickweed, Stellaria media) windgrass (Apera spica-venti) and deadnettle (henbit deadnettle, Lamium amplexicaule) were planted in pots containing Redi-Earth® planting medium (Scotts Company, 14111 Scottslawn Road, Marysville, Ohio 43041) comprising spaghnum peat moss, vermiculite, wetting agent and starter nutrients and treated with postemergence applications of test chemicals formulated in the same manner. Plants ranged in height from 2 to 18 cm (1- to 4-leaf stage) for postemergence treatments.
# (§5) Treated plants and controls were maintained in a greenhouse for 13 to 15 days, after which time all species were compared to controls and visually evaluated. Plant response ratings, summarized in Table C, are based on a scale of 0 to 100 where 0 is no effect and 100 is complete control. A dash (-) response means no test result.
# [6] = test system: large crabgrass (Digitaria sanguinalis); test: Test C pre-/postemergence: large crabgrass
# Outline: as §2
# [7] = test system: foxtail, giant (giant foxtail, Setaria faberii); test: Test C pre-/postemergence: foxtail, giant
# Description: as §3, §4, §5
# [8] = test system: lambsquarters (Chenopodium album); test: Test C pre-/postemergence: lambsquarters
# Outline: as §2
# [9] = test system: morningglory (Ipomoea coccinea); test: Test C pre-/postemergence: morningglory
# Description: as §3, §4, §5
# [10] = Postemergence, 16 g ai/ha, scale 0 to 100, 0 no effect, 100 complete control
# [11] = Postemergence, 31 g ai/ha, scale 0 to 100 (0 no effect, 100 complete control)
# [12] = Postemergence, 62 g ai/ha, scale 0 to 100 (0 no effect, 100 complete control)
# [13] = Postemergence, 125 g ai/ha, scale 0 to 100, 0 no effect, 100 complete control
# [14] = Preemergence, 16 g ai/ha, scale 0 (no effect) to 100 (complete control)
# [15] = Preemergence, 31 g ai/ha, scale of 0 to 100, 0 is no effect, 100 is complete control
# [16] = Preemergence, 62 g ai/ha, scale of 0 to 100, 0 is no effect, 100 is complete control
# [17] = Preemergence, 125 g ai/ha, scale 0 to 100, 0 no effect, 100 complete control
# [18] = Preemergence, 62 g ai/ha, scale 0 to 100, 0 no effect, 100 complete control
# [19] = Postemergence, 125 g ai/ha, 0 to 100 scale, 0 is no effect, 100 is complete control
# [20] = Postemergence, 500 g ai/ha, visual rating on 0 to 100 scale (0 no effect, 100 complete control), approximately ten days
# [21] = Preemergence, 125 g ai/ha, 0 to 100 scale (0 no effect, 100 complete control)
# [22] = Preemergence, 500 g ai/ha, 0 to 100 scale, 0 is no effect, 100 is complete control
# [23] = Postemergence, 250 g ai/ha, scale 0 to 100
# [24] = Preemergence, 250 g ai/ha, scale 0 to 100, 0 no effect, 100 complete control
compound,measurement,setting,value
"COc1nn(-c2ccc(C(F)(F)F)cc2)nc1Cc1ccnc(C(F)(F)F)c1 [Compound 15, 4-[[5-methoxy-2-[4-(trifluoromethyl)phenyl]-2H-1,2,3-triazol-4-yl]methyl]-2-(trifluoromethyl)pyridine]",pest or weed control at 125 g/ha,"[1]; post-emergence, Postemergence, 125 g ai/ha, 0 to 100 scale, 0 is no effect, 100 is complete control, read-out: Pigweed plant response rating",100%
same,pest or weed control at 500 g/ha,"[1]; post-emergence, Postemergence, 500 g ai/ha, visual rating on 0 to 100 scale (0 no effect, 100 complete control), approximately ten days, read-out: Pigweed plant response rating",100%
same,pest or weed control at 125 g/ha,"[1]; pre-emergence, Preemergence, 125 g ai/ha, 0 to 100 scale (0 no effect, 100 complete control), read-out: Plant response rating, Pigweed",100%
same,pest or weed control at 500 g/ha,"[1]; pre-emergence, Preemergence, 500 g ai/ha, 0 to 100 scale, 0 is no effect, 100 is complete control, read-out: Plant response rating, Pigweed",100%
same,plant injury at 125 g/ha,"[2]; post-emergence, Postemergence, 125 g ai/ha, 0 to 100 scale, 0 is no effect, 100 is complete control, read-out: Wheat plant response rating",30%
same,plant injury at 500 g/ha,"[2]; post-emergence, Postemergence, 500 g ai/ha, visual rating on 0 to 100 scale (0 no effect, 100 complete control), approximately ten days, read-out: Wheat plant response rating",50%
same,plant injury at 125 g/ha,"[2]; pre-emergence, Preemergence, 125 g ai/ha, 0 to 100 scale (0 no effect, 100 complete control), read-out: Plant response rating, Wheat",30%
same,plant injury at 500 g/ha,"[2]; pre-emergence, Preemergence, 500 g ai/ha, 0 to 100 scale, 0 is no effect, 100 is complete control, read-out: Plant response rating, Wheat",50%
same,"Plant response rating, Ryegrass, Italian",[3]; [10],10
same,"Plant response rating, Ryegrass, Italian",[3]; [11],30
same,"Plant response rating, Ryegrass, Italian",[3]; [12],45
same,"Plant response rating, Ryegrass, Italian",[3]; [13],60
same,"Plant response rating, Ryegrass, Italian",[3]; [14],10
same,"Plant response rating, Ryegrass, Italian",[3]; [15],40
same,"Plant response rating, Ryegrass, Italian",[3]; [16],45
same,"Plant response rating, Ryegrass, Italian",[3]; [17],80
same,"Plant response rating, Galium",[4]; [10],50
same,"Plant response rating, Galium",[4]; [11],55
same,"Plant response rating, Galium",[4]; [12],55
same,"Plant response rating, Galium",[4]; [13],80
same,"Plant response rating, Galium",[4]; [14],50
same,"Plant response rating, Galium",[4]; [15],75
same,"Plant response rating, Galium",[4]; [16],95
same,"Plant response rating, Galium",[4]; [17],98
same,"Plant response rating, Corn",[5]; [10],0
same,"Plant response rating, Corn",[5]; [11],5
same,"Plant response rating, Corn",[5]; [12],15
same,"Plant response rating, Corn",[5]; [13],35
same,"Plant response rating, Corn",[5]; [14],0
same,"Plant response rating, Corn",[5]; [15],0
same,"Plant response rating, Corn",[5]; [18],0
same,"Plant response rating, Corn",[5]; [17],10
same,"Plant response rating, Crabgrass, Large",[6]; [10],5
same,"Plant response rating, Crabgrass, Large",[6]; [11],15
same,"Plant response rating, Crabgrass, Large",[6]; [12],45
same,"Plant response rating, Crabgrass, Large",[6]; [13],60
same,"Plant response rating, Crabgrass, Large",[6]; [14],98
same,"Plant response rating, Crabgrass, Large",[6]; [15],100
same,"Plant response rating, Crabgrass, Large",[6]; [16],100
same,"Plant response rating, Crabgrass, Large",[6]; [17],100
same,"Plant response rating, Foxtail, Giant",[7]; [10],5
same,"Plant response rating, Foxtail, Giant",[7]; [11],10
same,"Plant response rating, Foxtail, Giant",[7]; [12],10
same,"Plant response rating, Foxtail, Giant",[7]; [13],75
same,"Plant response rating, Foxtail, Giant",[7]; [14],95
same,"Plant response rating, Foxtail, Giant",[7]; [15],95
same,"Plant response rating, Foxtail, Giant",[7]; [16],100
same,"Plant response rating, Foxtail, Giant",[7]; [17],100
same,"Plant response rating, Lambsquarters",[8]; [10],100
same,"Plant response rating, Lambsquarters",[8]; [11],100
same,"Plant response rating, Lambsquarters",[8]; [12],100
same,"Plant response rating, Lambsquarters",[8]; [13],100
same,"Plant response rating, Lambsquarters",[8]; [14],95
same,"Plant response rating, Lambsquarters",[8]; [15],100
same,"Plant response rating, Lambsquarters",[8]; [16],100
same,"Plant response rating, Lambsquarters",[8]; [17],100
same,"Plant response rating, Morningglory",[9]; [10],45
same,"Plant response rating, Morningglory",[9]; [11],75
same,"Plant response rating, Morningglory",[9]; [12],75
same,"Plant response rating, Morningglory",[9]; [13],90
same,"Plant response rating, Morningglory",[9]; [14],5
same,"Plant response rating, Morningglory",[9]; [15],5
same,"Plant response rating, Morningglory",[9]; [16],15
same,"Plant response rating, Morningglory",[9]; [17],45
Cc1nn(-c2ccc(C(F)(F)F)cn2)nc1Oc1ccnc(C(F)(F)F)c1 [Compound 23],Pigweed plant response rating,[1]; [19],100
same,Pigweed plant response rating,[1]; [20],100
same,"Plant response rating, Pigweed",[1]; [21],100
same,"Plant response rating, Pigweed",[1]; [22],100
same,Wheat plant response rating,[2]; [19],20
same,Wheat plant response rating,[2]; [20],50
same,"Plant response rating, Wheat",[2]; [21],0
same,"Plant response rating, Wheat",[2]; [22],70
same,"Plant response rating, Ryegrass, Italian",[3]; [11],5
same,"Plant response rating, Ryegrass, Italian",[3]; [12],10
same,"Plant response rating, Ryegrass, Italian",[3]; [13],10
same,"Plant response rating, Ryegrass, Italian",[3]; [23],15
same,"Plant response rating, Ryegrass, Italian",[3]; [15],0
same,"Plant response rating, Ryegrass, Italian",[3]; [16],5
same,"Plant response rating, Ryegrass, Italian",[3]; [17],25
same,"Plant response rating, Ryegrass, Italian",[3]; [24],70
same,"Plant response rating, Galium",[4]; [11],85
same,"Plant response rating, Galium",[4]; [12],85
same,"Plant response rating, Galium",[4]; [13],90
same,"Plant response rating, Galium",[4]; [23],90
same,"Plant response rating, Galium",[4]; [15],80
same,"Plant response rating, Galium",[4]; [16],95
same,"Plant response rating, Galium",[4]; [17],100
same,"Plant response rating, Galium",[4]; [24],100
same,"Plant response rating, Corn",[5]; [11],10
same,"Plant response rating, Corn",[5]; [12],15
same,"Plant response rating, Corn",[5]; [13],20
same,"Plant response rating, Corn",[5]; [23],30
same,"Plant response rating, Corn",[5]; [15],5
same,"Plant response rating, Corn",[5]; [18],30
same,"Plant response rating, Corn",[5]; [17],70
same,"Plant response rating, Corn",[5]; [24],85
same,"Plant response rating, Crabgrass, Large",[6]; [11],10
same,"Plant response rating, Crabgrass, Large",[6]; [12],15
same,"Plant response rating, Crabgrass, Large",[6]; [13],25
same,"Plant response rating, Crabgrass, Large",[6]; [23],35
same,"Plant response rating, Crabgrass, Large",[6]; [15],100
same,"Plant response rating, Crabgrass, Large",[6]; [16],100
same,"Plant response rating, Crabgrass, Large",[6]; [17],100
same,"Plant response rating, Crabgrass, Large",[6]; [24],100
same,"Plant response rating, Foxtail, Giant",[7]; [11],15
same,"Plant response rating, Foxtail, Giant",[7]; [12],15
same,"Plant response rating, Foxtail, Giant",[7]; [13],15
same,"Plant response rating, Foxtail, Giant",[7]; [23],25
same,"Plant response rating, Foxtail, Giant",[7]; [15],98
same,"Plant response rating, Foxtail, Giant",[7]; [16],100
same,"Plant response rating, Foxtail, Giant",[7]; [17],100
same,"Plant response rating, Foxtail, Giant",[7]; [24],100
same,"Plant response rating, Lambsquarters",[8]; [11],40
same,"Plant response rating, Lambsquarters",[8]; [12],40
same,"Plant response rating, Lambsquarters",[8]; [13],98
same,"Plant response rating, Lambsquarters",[8]; [23],98
same,"Plant response rating, Lambsquarters",[8]; [15],95
same,"Plant response rating, Lambsquarters",[8]; [16],98
same,"Plant response rating, Lambsquarters",[8]; [17],98
same,"Plant response rating, Lambsquarters",[8]; [24],100
same,"Plant response rating, Morningglory",[9]; [11],70
same,"Plant response rating, Morningglory",[9]; [12],70
same,"Plant response rating, Morningglory",[9]; [13],90
same,"Plant response rating, Morningglory",[9]; [23],90
same,"Plant response rating, Morningglory",[9]; [15],20
same,"Plant response rating, Morningglory",[9]; [16],20
same,"Plant response rating, Morningglory",[9]; [17],100
same,"Plant response rating, Morningglory",[9]; [24],100
